We go through 12 molecules from patent publication US7468449B2, “Phenyl-furan compounds as vitamin D receptor modulators” (Eli Lilly and Company, priority 2003, dated 2008).

Several values for one entry are separate records, joined by “and”; a condition that tells them apart may be missing. Identical values can stand only once. Like-named read-outs stand apart in the source and are kept apart here.

One data set concerns KERtr cells. Nature of the data set: Keratinocyte proliferation assay. The class given is cell-based, Human. As to conditions: BrdU incorporation. The method, then:
5. The Keratinocyte Proliferation Assay
This Assay is indicative for the treatment of psoriasis.
(5) The Keratinocyte Proliferation Assay:
KERtr cells (Human skin keratinocyte transformed with a retrovirus vector, obtained from ATCC) were plated in 96-well flat-bottomed plates (3000 cells/well) in 100 μl keratinocyte serum free medium supplemented with bovine pituitary extract in the absence of EGF (Life Technologies, Rockville, Md.) and incubated at 37° C. for two days. The cells were treated with various concentrations of VDR ligands (ten-fold serial dilution from 10,000 nM to 0.1 nM in triplicate), dissolved in 100 μl keratinocyte serum free medium supplemented with bovine pituitary extract in the absence of EGF and incubated at 37° C. for 72 hr. […] Potency values (IC50) values were determined as the concentration (nM) of compound that elicited a half-maximal response.

The nature of data set [1]: Mouse hypercalcemia assay. The settings on record: six day hypercalcemia test, oral gavage, serum ionized calcium.
Procedure: The Mouse Hypercalcemia Assay
The Mouse Hypercalcemia Assay is a six day hypercalcemia test for toxicity and selectivity. Acceptable test results are levels greater than 300 μg/kg/day. Preferred assay results are levels greater than 1000 μg/kg/day.
(4) Materials and Method for The Mouse Hypercalcemia Assay:
Weanling, virus-antibody-free, five to six weeks old female DBF mice (Harlan, Indianapolis, Ind.) are used for all the studies. Animals are allowed to acclimate to local vivarium conditions for 2 days. […] The animals then are divided into groups with 4-5 mice per group. Different doses of test compounds prepared in 10% Ethanol and 90% sesame oil are administered to mice orally via gavage for 6 days. 1α-25(OH)2D3 0.5 μg/kg/d was also given to one group of mice as the positive control. […] Raw data of group differences is assessed by analysis of variance (ANOVA) using Fisher's protected least significant difference (PLSD) where the significance level was P<0.05.
For the next data set, the system named is rat osteocalcin promoter. Nature of the data set: OCN (osteocalcin) promoter assay. The class given is cell-based. As to conditions: RG-15 (ROS 17/2.8) cells, 48 hr treatment. On the procedure:
3. The OCN (osteocalcin) Promoter Assay
The OCN Promoter Assay is an indicator and marker for osteoporosis. […] Preferred assay results are less than 50 nM.
(3) Materials and Method for The OCN Promoter Assay:
The activation of osteocalcin by VDR ligands was evaluated in a rat osteoblast-like cell line RG-15 (ROS 17/2.8) stably expressing rat osteocalcin promoter fused with luciferase reporter gene. […] After 24 hr, cells (in DMEM/F-12 medium +2% FBS) were treated with various concentrations of compounds, dissolved in DMSO. The final DMSO concentration remained at 0.01% (v/v). After 48 hr treatment, the medium was removed, cells were lysed with 50 μl of lysis buffer (From Luciferase reporter assay system, Roche Diagnostics, Indianapolis, Ind.) and assayed for luciferase activity using the Luciferase Reporter Gene Assay kit from Boehringer Mannheim as per manufacturer's specifications.

For the next data set, the target named is T1, VDR (Homo sapiens, UniProt P11473).
T1 construct: the receptor expression vector pGal-4-VDR-LBD (10 ng); expressed in transfected cells; host or cells: Caco-2 cells
T1 sequence (P11473 127-423 limits assumed): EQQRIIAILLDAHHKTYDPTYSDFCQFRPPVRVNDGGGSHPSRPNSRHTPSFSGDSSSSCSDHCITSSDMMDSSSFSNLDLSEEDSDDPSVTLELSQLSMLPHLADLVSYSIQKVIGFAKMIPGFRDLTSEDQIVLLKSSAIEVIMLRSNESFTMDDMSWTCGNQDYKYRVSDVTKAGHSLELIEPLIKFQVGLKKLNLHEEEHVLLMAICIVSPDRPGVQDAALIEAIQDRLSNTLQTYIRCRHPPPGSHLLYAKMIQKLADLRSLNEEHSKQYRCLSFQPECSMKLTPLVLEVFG
Nature of the data set: VDR CTF (Caco-2 cell co-transfection) assay. The class given is cell-based. The settings on record: Caco-2 cells, Gal-4-VDR-LBD co-transfection; Table 1. The method, then:
2. The Caco-2 Cell Co-transfection Assay:
The Caco-2 cell assay is an indicator for the undesirable condition of hypercalcemia. This co-transfection assay is a surrogate assay for in vivo calcemic activity of VDR ligands. […] Preferred assay results are greater than 1000 nM.
Step 4: FuGENE, DNA and Media Complex to-well plate • Add FuGENE-DNA-Media complex from step 3 to each plate • Incubate. […] Day 4: Luciferase Assay • Read the plates after drug treatment • Remove part of media from all the wells and leave remainder • Add Steady-Glo Luciferase Reagent mixture/wells • Incubate • Count each well using a Luminescence counter, Top Count NXT by Packard Set a delay between plates to reduce the background. (2) Materials and Method for The Caco-2 Cell Assay:
Caco-2 cells, grown in phenol red free, DMEM (Invitrogen, Carlsbad, Calif.) containing 10% charcoal-stripped FCS (Hyclone, Logan, Utah), were transfected with Fugene 6 reagent (Roche Diagnostics, Indianapolis, Ind.). Cells (5000/well) were plated 18 h before transfection in a 96 well plate. The Cells were transfected with Gal-4-responsive reporter pFRLuc (150 ng, Stratagene, La Jolla Calif.) and the receptor expression vector pGal-4-VDR-LBD (10 ng), along with Fugene 6 reagent (0.2 μl/well). The DNA-Fugene complex was formed by incubating the mixture for 30 min at room temperature. The cells were transfected in triplicate for 5 h, and treated with various concentrations of VDR ligands (form 0.01 nM to 10,000 nM concentration range) 18 h post-transfection. The luciferase activity was quantified using Steady-Glo reagent kit (Promega, Madison, Wis.) as per manufacturer's specifications.

A further data set addresses T2, RXR-VDR heterodimer (Homo sapiens, UniProt P11473).
T2 construct: Add the Gal-4-RXR-DEF and VP16-VDR-LBD; expressed in transfected cells; host or cells: SaOs-2 cells
T2 sequence (P11473 127-423 limits assumed): T1 sequence (P11473 127-423 limits assumed)
T2 sequence (P19793 201-462 partner limits assumed): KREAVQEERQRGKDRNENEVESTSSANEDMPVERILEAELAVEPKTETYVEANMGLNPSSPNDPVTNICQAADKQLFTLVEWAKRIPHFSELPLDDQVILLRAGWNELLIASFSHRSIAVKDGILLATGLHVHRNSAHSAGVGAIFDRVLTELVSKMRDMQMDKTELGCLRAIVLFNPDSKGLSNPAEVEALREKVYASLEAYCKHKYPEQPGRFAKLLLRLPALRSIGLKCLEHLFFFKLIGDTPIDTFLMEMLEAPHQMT
Briefly: RXR-VDR heterodimerization assay (SaOS-2 cells). The class given is cell-based. The settings on record: luciferase reporter, Table 1. The text has this: 1. The RXR-VDR Heterodimer Assay:
This assay provides the VDR activity of a test compound.
(1) Materials and Method for RXR-VDR Heterodimerization Assay:
Transfection/Treatment Media: • D-MEM Low Glucose Without Phenol Red only
Flat well Plates: • Use well plate to plate cells • Use Deep well plate sterile to make up treatment media.
Luciferase Assay Reagent: • Use Steady-Glo Luciferase Reagent from Promega (Cat #E2550) Consists of: • a. E2533 Assay Substrate, lyopholized product and • b. E2543 Assay Buffer. • Thaw at room temperature • Store Day 1: Cell Plating: • Cell Harvesting • Aspirate media from culture flask, rinse cells with HBSS and aspirate. • Add trypsin and incubate. • When cells appear detached, resuspend cells in growth media. • Transfer into a new flask with fresh growth media for passaging the cells. • Plate well plates and two extra plates A. Cell Count • Mix the cell suspension using pipette • Use Hematocytometer to count the cells • Load cell suspension onto the hemocytometer chamber • Count cells.
Step 1: DNA and Media • Add plain DMEM media to tubes for mixing the DNA • Add the Reporter gene pFR-LUC • Add the Gal-4-RXR-DEF and VP16-VDR-LBD
Step 2: FuGENE and Media • Prepare plain DMEM media in a ubes for mixing PuGENE • Add FuGENE 6 Transection Reagent • Incubate
Step 3: FuGENE, DNA and Media Complex • Add FuGENE Media complex from step 2 to DNA Media complex from step1 • Incubate
Step 4: FuGENE, DNA and Media Complex to-well plate • Add FuGENE-DNA-Media complex from step 3 to each plate • Incubate. […] Day 4: Luciferase Assay • Read the plates after drug treatment • Remove part of media from all the wells and leave remainder • Add Steady-Glo Luciferase Reagent mixture/wells • Incubate • Count each well using a Luminescence counter, Top Count NXT by Packard Set a delay between plates to reduce the background. (2) Materials and Method for The Caco-2 Cell Assay: […]
A general note: Reporter assays use an easily measured gene product as a stand-in for the process of interest.

[2] abbreviates: Homo sapiens, Keratinocyte, 72 h, Table 4 comparison compounds, read-out: Kera. Prolif. IC50.
The mark [3] stands for this setting: Rattus norvegicus, 48 h, Table 3 comparison compounds.
The mark [4] stands for this setting: Rattus norvegicus, 48 h, Table 1.
Setting [5] is: 72 hr, Table 2, read-out: Kera. Prolif. IC50.

Take `CCC(CC)(c1ccc(OCC(O)CO)c(C)c1)c1ccc(OCC(O)C(C)(C)C)c(C)c1` (stereo not drawn) [BB, 3-(4-{1-Ethyl-1-[4-(2-hydroxy-3,3-dimethyl-butoxy)-3-methyl-phenyl]-propyl}-2-methyl-phenoxy)-propane-1,2-diol, reference compound]: the half-maximal inhibitory concentration (IC50) (usually the concentration that inhibits the measured activity by half) in the data set on KERtr cells (setting [2]) came out at 10 nM. Moreover, the “Mouse Hypercal μg/Kg/d” value in data set [1] (Table 3 comparison compounds) is recorded as “>=20 μg/Kg/d”. The EC50 (as a rule, the concentration at which the effect is half-maximal) with rat osteocalcin promoter (setting [3]) came to 8.24 nM.

On to `CCC(C)c1cc(C(CC)(CC)c2ccc(C(=O)N(C)C)o2)ccc1OCC(=O)C(C)(C)C` (stereo not drawn) [Ex. 5, 3′-[4-(2-oxo-3,3-dimethylbutoxy)-3-(2-butyl)phenyl]-3′-[5-dimethylaminocarbonyl-furan-2-yl]pentane], for which, in the data set with KERtr cells (Homo sapiens, Keratinocyte, 72 h, Table 2, read-out: Kera. Prolif. IC50), the IC50 is 1000 nM. In addition, the 50% effective concentration (EC50) in the data set on rat osteocalcin promoter (Table 1) is 44 nM; in the data set on rat osteocalcin promoter (setting [4]) it was 33 nM; at VDR, 129 nM; at RXR-VDR heterodimer it was 135 nM and 40 nM.

As for `CCC(CC)(c1ccc(OCC(O)C(C)(C)C)c(C)c1)c1ccc(C(=O)N(C)C)o1` (single isomer, unassigned) [Ex. 3, 3′-[4-(2-hydroxy-3,3-dimethylbutoxy)-3-methylphenyl]-3′-[5-dimethylaminocarbonyl-2-furanyl]pentane], in the data set on KERtr cells (setting [5]), the concentration for half-maximal inhibition (IC50) turned out to be 1 nM. Further, the “Mouse Hypercal” value in data set [1] (Table 1) is >2000 µg/kg/day. The EC50 was 4.6 nM and 2.5 nM in the data set with rat osteocalcin promoter (Table 1); 391 nM at VDR.

In the case of `CCc1cc(C(CC)(CC)c2ccc(C(=O)N(C)C)o2)ccc1OCC(O)C(C)(C)C` (single isomer, unassigned; enantiomer 1) [Ex. 10, 3′-[4-(2-hydroxy-3,3-dimethyl-butoxy)-3-ethylphenyl]-3′-[5-dimethylaminocarbonyl-2-furanyl]pentane enantiomer 1], the IC50 in the data set with KERtr cells (setting [5]) was 7 nM. The “Mouse Hypercal” value in data set [1] (Table 1) was >1000 µg/kg/day. Further, on VDR, the midpoint of the response, the EC50, lay at 191 nM.

As to `Cc1cc(C2(c3ccc(OCC(=O)C(C)(C)C)c(C)c3)CCCCC2)ccc1OCC(=O)C(C)(C)C` [CC, 1-(4-{1-[4-(3,3-Dimethyl-2-oxo-butoxy)-3-methyl-phenyl]-cyclohexyl}-2-methyl-phenoxy)-3,3-dimethyl-butan-2-one, reference compound], the EC50 in the data set with rat osteocalcin promoter (setting [3]) was > 1000 nM.

With `CCC(CC)(c1ccc(OCC(=O)C(C)(C)C)c(C)c1)c1ccc(OC[C@H](O)C(C)(C)C)c(C)c1` [EE, reference compound], the “Mouse Hypercal” value in data set [1] (Table 3 comparison compounds) was 1000 µg/kg/day. In the data set on rat osteocalcin promoter (setting [3]), the EC50 was found to be 341 nM.

Take `CCN(CC)C(=O)c1ccc(C(CC)(CC)c2ccc(OCC(=O)C(C)(C)C)c(C)c2)o1` [Ex 7, 3′-[4-(2-oxo-3,3-dimethyl-butoxy)-3-methylphenyl]-3′-[5-diethylaminocarbonyl-2-furanyl]-pentane]: the IC50 in the data set on KERtr cells (setting [5]) came out at 23 nM. Moreover, the “Mouse Hypercal” value in data set [1] (Table 1) was >9000 µg/kg/day. Moreover, the EC50 in the data set with rat osteocalcin promoter (Table 1) amounted to 95 nM.

Turning to `CCC(CC)(c1ccc(OCC(O)C(C)(C)C)c(C)c1)c1ccc(C(=O)N(C)C)o1` (single isomer, unassigned) [Ex. 4, 3′-[4-(2-hydroxy-3,3-dimethylbutoxy)-3-methylphenyl]-3′-[5-dimethylaminocarbonyl-2-furanyl]pentane], the IC50 in the data set on KERtr cells (setting [5]) is 4 nM. Moreover, in data set [1] (Table 1), the “Mouse Hypercal” value was >2000 µg/kg/day. The EC50 was 2 nM and 1 nM in the data set with rat osteocalcin promoter (Table 1); 333 nM at VDR.

Take `CCC(CC)(c1ccc(OCC(O)C(C)(C)C)c(C)c1)c1ccc(C(=O)N(C)C)o1` (racemic) [Ex. 2, 3′-[4-(2-hydroxy-3,3-dimethylbutoxy)-3-methylphenyl]-3′-[5-dimethylaminocarbonyl-2-furanyl]pentane]: the concentration giving a half-maximal response (EC50) in the data set on rat osteocalcin promoter (setting [4]) came out at 3 nM; on VDR it was 25 nM.

`CCCc1cc(C(CC)(CC)c2ccc(C(=O)N(C)C)o2)ccc1OCC(O)C(C)(C)C` (single isomer, unassigned; enantiomer 1) [Ex. 12, 3′-[4-(2-hydroxy-3,3-dimethyl-butoxy)-3-n-propyl-phenyl]-3′-[5-dimethylaminocarbonyl-2-furanyl]pentane enantiomer 1]: the IC50 in the data set on KERtr cells (setting [5]) was 17 nM. Moreover, the EC50 on VDR came out at 187 nM; on RXR-VDR heterodimer, 188 nM.

`CCC(O)(CC)COc1ccc(C(CC)(CC)c2ccc(C(=O)N(C)C)o2)cc1C` [Ex 14, 3′-[4-(2-hydroxy-2-ethylbutoxy)-3-methylphenyl]-3′-[5-dimethylaminocarbonyl-2-furanyl]pentane]: the EC50 in the data set with rat osteocalcin promoter (setting [4]) is 101 nM; on VDR, 635 nM; on RXR-VDR heterodimer it was 104 nM.

For the molecule `CCC(CC)(c1ccc(OCC(=O)C(C)(C)C)c(C)c1)c1ccc(OCC(=O)C(C)(C)C)c(C)c1` [DD, reference compound], the IC50 with KERtr cells (setting [2]) was found to be 1060 nM. For the same molecule, in data set [1] (Table 3 comparison compounds), the “Mouse Hypercal” value was 1000 µg/kg/day. Besides, the EC50 in the data set with rat osteocalcin promoter (setting [3]) was 31.1 nM.
